# Assay results as given in publication PMC6796924 (ACS Omega, 2019).
# Values joined by “and” are separate entries in the source; they are usually repeats but may differ in a detail not shown here. Identical values can stand only once.
# How the values were obtained:
# [1] = Solubility studies of K-604 in different vehicles; type: physicochemical
# [2] = In vitro BBB permeability, BBB Kit; type: in vitro ADME; details: Wistar, rat
# [3] = PK study after oral administration; type: in vivo, mice
# [4] = PK study after intranasal administration; type: in vivo, mice; details: for concentration at 5 min / concentration at 15 min / concentration at 30 min / concentration at 45 min: other: intranasal, drug concentration in plasma; for Tmax at 7 days / Cmax at 7 days: 32.4 ug; for AUC(0-t): AUC0–t; for half-life: T1/2, plasma
# [5] = pH 6.8; cited from earlier work
# [6] = female, ICR, mouse, cerebellum, po, 6 mg/kg
# [7] = female, ICR, mouse, cerebrum, po, 6 mg/kg
# [8] = female, ICR, mouse, plasma, po, 6 mg/kg
# [9] = single oral 6 mg/kg (166 μg/mouse), 0.01 N HCl solution, mice
# [10] = 0.01 N HCl solution, 32.4 μg/mouse intranasal vs oral 166 μg/mouse, cerebrum
# [11] = CA solution, 108 μg/mouse intranasal vs oral 166 μg/mouse, cerebrum
# [12] = GA solution, 108 μg/mouse intranasal vs oral 166 μg/mouse, cerebrum
# [13] = HA solution, 108 μg/mouse intranasal vs oral 166 μg/mouse, cerebrum
# [14] = female, Crl:CDI (ICR), mouse, plasma, 32.4 μg, repeated intranasal, 0.01 N HCl solution, 10 μL, mice
# [15] = female, Crl:CDI (ICR), mouse, plasma, 162 μg, repeated (7 days) intranasal, 0.01 N HCl solution, 50 μL, mice
# [16] = female, ICR, mouse, plasma, inhaled or intranasal, 108 ug, single intranasal, CA solution, 108 μg/10 μL, mice
# [17] = female, ICR, mouse, plasma, inhaled or intranasal, 108 ug, single intranasal, GA solution, 108 μg/10 μL, mice
# [18] = female, ICR, mouse, plasma, inhaled or intranasal, 108 ug, single intranasal, HA solution, 108 μg/10 μL, mice
# [19] = repeated (7 days) intranasal, 0.01 N HCl solution, 32.4 μg/10 μL, mice
# [20] = single intranasal, CA solution, 108 μg/10 μL, mice
# [21] = single intranasal, GA solution, 108 μg/10 μL, mice
# [22] = single intranasal, HA solution, 108 μg/10 μL, mice
structure (smiles),measurement,setting,value
"CSc1cc(C)nc(SC)c1NC(=O)CN1CCN(CCSc2nc3ccccc3[nH]2)CC1.Cl [K-604, 2-(4-(2-((1H-Benzo[d]imidazol-2-yl)thio)ethyl)piperazin-1-yl)-N-(6-methyl-2,4-bis(methylthio)pyridin-3-yl)acetamide hydrochloride]",solubility at 24 h,"[1]; CA aqueous solution (additive 7.7 mg, 0.04 M), pH 3, thermodynamic from solid",10.8 mg/mL
same,solubility at 24 h,"[1]; GA aqueous solution (additive 4 mg, 0.04 M), pH 3.6, thermodynamic from solid",10.8 mg/mL
same,solubility at 24 h,"[1]; HA aqueous solution (additive 5 mg), pH 3.8, thermodynamic from solid",10.8 mg/mL
same,solubility,"[1]; water, pH 6.8, water",0.05 mg/mL
same,"Papp at 30 min, 1 μM",[2],21.9 ×10⁻⁶ cm/s
same,Cmax,[3]; [6],0.7 ± 0.3 ng/g
same,Tmax,[3]; [6],15 min
same,Cmax,[3]; [7],0.8 ± 0.4 ng/g
same,Tmax,[3]; [7],15 min
same,AUC(0-t),[3]; [8],3.29 ng·h/mL
same,Cmax,[3]; [8],6.2 ± 3.1 ng/mL
same,Tmax,[3]; [8],15 min
same,"AUC0–t, cerebellum",[3]; [9],5.4 ± 4.9 ng·min/g
same,"AUC0–t, olfactory bulb",[3]; [9],0 ± 0 ng·min/g
same,"AUC0–t, cerebrum","[3]; single oral 6 mg/kg (166 μg/mouse), 0.01 N HCl solution, mice, 6 mg/kg",8.9 ng·min/g and 9 ng·min/g and 8.9 ± 7.4 ng·min/g
same,drug concentrations in cerebrum and cerebellum tissue at 60 min,"[3]; single oral 6 mg/kg, mice, LLOQ 0.5 ng/g",less than the lower limit of quantification (LLOQ)
same,"drug concentrations in the olfactory bulb tissue, all time points","[3]; single oral 6 mg/kg, mice, LLOQ 1 ng/g",less than the LLOQ
same,intranasal AUC BTE index,[4]; [10],211
same,intranasal Cmax BTE index,[4]; [10],134
same,"drug concentration in plasma relative to cerebral tissue, fold higher","[4]; 5 to 45 min, repeated intranasal, 0.01 N HCl solution, 50 μL, mice",6- to 10 fold
same,intranasal AUC BTE index,[4]; [11],133
same,intranasal Cmax BTE index,[4]; [11],90
same,intranasal AUC BTE index,[4]; [12],100
same,intranasal Cmax BTE index,[4]; [12],61
same,intranasal AUC BTE index,[4]; [13],137
same,intranasal Cmax BTE index,[4]; [13],75
same,Tmax,"[4]; female, Crl:CD1 (ICR), mouse, cerebrum, inhaled or intranasal, 108 ug",15 min
same,Tmax,"[4]; female, Crl:CD1 (ICR), mouse, olfactory bulb, inhaled or intranasal, 108 ug",15 min
same,Tmax,"[4]; female, Crl:CD1 (ICR), mouse, plasma, inhaled or intranasal, 108 ug",5 min
same,Cmax,"[4]; female, Crl:CDI (ICR), mouse, cerebrum, inhaled or intranasal, 162 ug, cerebrum, repeated (7 days) intranasal, 0.01 N HCl solution, 162 μg/50 μL, mice",83 ng/g
same,Cmax,"[4]; female, Crl:CDI (ICR), mouse, cerebrum, inhaled or intranasal, 162 ug, cerebrum, single intranasal, 0.01 N HCl solution, 162 μg/50 μL, mice",66 ng/g
same,Cmax,"[4]; female, Crl:CDI (ICR), mouse, olfactory bulb, inhaled or intranasal, 162 ug, olfactory bulb, repeated (7 days) intranasal, 0.01 N HCl solution, 162 μg/50 μL, mice",285 ng/g
same,Cmax,"[4]; female, Crl:CDI (ICR), mouse, olfactory bulb, inhaled or intranasal, 162 ug, olfactory bulb, single intranasal, 0.01 N HCl solution, 162 μg/50 μL, mice",406 ng/g
same,AUC,"[4]; female, Crl:CDI (ICR), mouse, plasma, inhaled or intranasal, 162 ug",345 ng·h/mL
same,Cmax,"[4]; female, Crl:CDI (ICR), mouse, plasma, inhaled or intranasal, 162 ug, plasma, repeated (7 days) intranasal, 0.01 N HCl solution, 162 μg/50 μL, mice",870 ng/mL
same,Cmax,"[4]; female, Crl:CDI (ICR), mouse, plasma, inhaled or intranasal, 162 ug, plasma, single intranasal, 0.01 N HCl solution, 162 μg/50 μL, mice",574 ng/mL
same,concentration at 5 min,[4]; [14],142 ng/mL
same,concentration at 15 min,[4]; [14],90 ng/mL
same,concentration at 30 min,[4]; [14],33 ng/mL
same,concentration at 45 min,[4]; [14],10 ng/mL
same,concentration at 5 min,[4]; [15],870 ng/mL
same,concentration at 15 min,[4]; [15],449 ng/mL
same,concentration at 30 min,[4]; [15],250 ng/mL
same,concentration at 45 min,[4]; [15],77 ng/mL
same,Tmax at 7 days,"[4]; female, ICR, mouse, cerebrum, inhaled or intranasal",5 min
same,Cmax at 7 days,"[4]; female, ICR, mouse, cerebrum, inhaled or intranasal, repeated (7 days) intranasal, 0.01 N HCl solution, 32.4 μg/10 μL, mice",21 ± 10 ng/g
same,Tmax,"[4]; female, ICR, mouse, cerebrum, inhaled or intranasal, 108 ug",5 min
same,Cmax,"[4]; female, ICR, mouse, cerebrum, inhaled or intranasal, 108 ug, single intranasal, CA solution, 108 μg/10 μL, mice",47 ± 29 ng/g
same,Cmax,"[4]; female, ICR, mouse, cerebrum, inhaled or intranasal, 108 ug, single intranasal, GA solution, 108 μg/10 μL, mice",32 ± 7 ng/g
same,Cmax,"[4]; female, ICR, mouse, cerebrum, inhaled or intranasal, 108 ug, single intranasal, HA solution, 108 μg/10 μL, mice",39 ± 11 ng/g
same,Tmax at 7 days,"[4]; female, ICR, mouse, olfactory bulb, inhaled or intranasal",5 min
same,Cmax at 7 days,"[4]; female, ICR, mouse, olfactory bulb, inhaled or intranasal, repeated (7 days) intranasal, 0.01 N HCl solution, 32.4 μg/10 μL, mice",156 ± 131 ng/g
same,Tmax,"[4]; female, ICR, mouse, olfactory bulb, inhaled or intranasal, 108 ug",5 min
same,Cmax,"[4]; female, ICR, mouse, olfactory bulb, inhaled or intranasal, 108 ug, single intranasal, CA solution, 108 μg/10 μL, mice",351 ± 112 ng/g
same,Cmax,"[4]; female, ICR, mouse, olfactory bulb, inhaled or intranasal, 108 ug, single intranasal, GA solution, 108 μg/10 μL, mice",160 ± 24 ng/g
same,Cmax,"[4]; female, ICR, mouse, olfactory bulb, inhaled or intranasal, 108 ug, single intranasal, HA solution, 108 μg/10 μL, mice",274 ± 100 ng/g
same,Tmax at 7 days,"[4]; female, ICR, mouse, plasma, inhaled or intranasal",5 min
same,Cmax at 7 days,"[4]; female, ICR, mouse, plasma, inhaled or intranasal, repeated (7 days) intranasal, 0.01 N HCl solution, 32.4 μg/10 μL, mice",146 ± 20 ng/mL
same,Tmax,"[4]; female, ICR, mouse, plasma, inhaled or intranasal, 108 ug",5 min
same,AUC(0-t),[4]; [16],165 ng·h/mL
same,AUC(0-t),[4]; [17],121 ng·h/mL
same,AUC(0-t),[4]; [18],170 ng·h/mL
same,Cmax,[4]; [16],283 ± 121 ng/mL
same,Cmax,[4]; [17],217 ± 51 ng/mL
same,Cmax,[4]; [18],274 ± 30 ng/mL
same,half-life,[4]; [16],13.4 ± 1.7 min
same,half-life,[4]; [17],16.6 ± 2.9 min
same,half-life,[4]; [18],17.4 ± 2.1 min
same,"AUC0–t, cerebrum",[4]; [19],367 ng·min/g and 367 ± 121 ng·min/g
same,"AUC0–t, olfactory bulb",[4]; [19],2113 ± 1380 ng·min/g
same,"AUC0–t, cerebrum",[4]; [20],772 ng·min/g and 772 ± 223 ng·min/g
same,"AUC0–t, olfactory bulb",[4]; [20],3976 ± 642 ng·min/g
same,"Tmax, plasma",[4]; [20],5 min
same,"AUC0–t, cerebrum",[4]; [21],579 ng·min/g and 579 ± 137 ng·min/g
same,"AUC0–t, olfactory bulb",[4]; [21],3406 ± 2127 ng·min/g
same,"AUC0–t, cerebrum",[4]; [22],791 ng·min/g and 791 ± 160 ng·min/g
same,"AUC0–t, olfactory bulb",[4]; [22],5200 ± 1036 ng·min/g
same,Aqueous solubility,[5],0.05 mg/mL
"NC(=O)N1c2ccccc2C=Cc2ccccc21 [carbamazepine, 5H-dibenzo[b,f]azepine-5-carboxamide, reference compound]","Papp at 30 min, 1 μM",[2],47.8 ×10⁻⁶ cm/s
